What follows are molecules tested on IL-1beta production in mouse microglial cell line (assay: Interleukin-1β microglial cell assay). Details: LPS 10 μg/ml and IFN gamma 10 ng/ml, 24 hours, read-out: EC50, inhibition of IL-1beta production.
Assay type: cell-based
Description: This assay measures the release of IL-1β from a mouse microglial cell line following an inflammatory challenge with LPS and interferon-gamma. The ability of test articles to inhibit microglial cell activation and IL-1β release is determined by co-incubation of the test article with the inflammatory challenge.
Mouse microglial cells were seeded in poly-D-lysine coated 96-well plates at a density of 10,000 cells/well and allowed to attach for 24 hours. Cells were stimulated by addition of LPS (10 μg/ml) and IFN gamma (10 ng/ml) in the presence or absence of test article. The cells were then incubated for 24 hours at 37° C., after which time the media was removed and used for cytokine determination as described below.
Viability of mouse microglial cells after exposure to the test article was determined using a fluorescent viability dye, Cell Tracker Green. Cell Tracker Green was used at a working concentration of 5 μM in 1×HBSS. Cells were washed once with HBSS (200 μl/well) and 100 μl Cell Tracker Green was added to each well. Cells were then incubated at 37° C. for 30 minutes, after which time the Cell Tracker was removed and the cells were washed once with HBSS (200 μl/well). 100 μl fresh HBSS was added to each well and the plate was read on a Fluoroskan plate reader using an excitation wavelength of 485 nm and an emission wavelength of 538 nm.
Solutions: • Wash Buffer: PBS 1 L+500 μl Tween 20 (final 0.05%) pH 7.2-7.4. • Blocking Buffer: 500 ml PBS+5 g BSA V (1%)+25 g Sucrose (5%)+0.25 g Sodium Azide (0.05%). • Reagent Diluent: 500 ml PBS+5 g BSA V (1%) pH 7.2-7.4 and filter sterilize through 0.2 μm. • Stop Solution: 2N sulfuric acid.
Duo Set Preparations: • 1. The IL-1β capture antibody was reconstituted in 1 ml of PBS to give a final concentration of 720 μg/ml, and the working concentration was 4 μg/ml. For coating one 96-well plate (at 100 μl/well) 56 μl of the 720 μg/ml stock was diluted into 10 ml of PBS. • 2. The IL-1β standards were reconstituted in 0.5 ml of Reagent Diluent (70 ng/ml). For a high standard of 1 ng/ml (2 wells at 100 μl each+enough for series dilution) 7.1 μl of the 70 ng/ml standard were diluted into 0.5 ml of Reagent Diluent • 3. The IL-1β detection antibody was reconstituted in 1 ml of Reagent Diluent to give a final concentration of 18 μg/ml and the working concentration is 100 ng/ml. For one 96-well plate (at 100 μl/well) 56 μl of the 18 μg/ml stock was diluted into 10 ml of Reagent Diluent.
• The Costar EIA Hi-binding plate was coated with capture antibody at 4 μg/ml. Each well was coated with 100 μl, and the plate was sealed and incubated overnight at room temperature. • Each well was aspirated and washed 3× with Wash Buffer. Each well was filled to the top, dispensed, and any remaining buffer was removed by inverting the plate and gently blotting against clean paper towels. • Non-specific binding sites were blocked by adding 300 μl of Blocking Buffer to each well, and after sealing incubating for at least 1 hour at room temperature. • After washing the plate was now ready for the samples. Assay Procedure: • 100 μl of either standard or sample were added in each well of the capture-coated and pre-blocked plate. The plate was sealed and incubated for 2 hours at room temperature, followed with washing. • 100 μl of the detection antibody (10 ng/ml) were added to each well. […]
`CC(C)=CCc1c(O)c2c(c3c1CCC(C)(C)O3)C1CCC2C1` (stereo not drawn) [2,2-Dimethyl-5-(3-methyl-but-2-enyl)-3,4,7,8,9,10-hexahydro-7,10-methano-2H-benzo[h]chromen-6-ol] was tested, and the EC50 was ≤ 20 µM. With `CC(C)CCc1c(O)c2c(c3c1CCC(C)(C)O3)C1CCC2C1` (stereo not drawn) [2,2-Dimethyl-5-(3-methyl-butyl)-3,4,7,8,9,10-hexahydro-7,10-methano-2H-benzo[h]chromen-6-ol] the EC50 was ≤ 20 µM.

What follows are molecules tested against T1, porcine leukocyte 12/15-lipoxygenase (Sus scrofa, UniProt P16469) (assay: 12/15-Lipoxygenase enzyme assay). Details: 70 μM arachidonic acid, pH 7.4; read-out: IC50, inhibition of 12/15-Lipoxygenase.
T1 sequence (P16469 1-663): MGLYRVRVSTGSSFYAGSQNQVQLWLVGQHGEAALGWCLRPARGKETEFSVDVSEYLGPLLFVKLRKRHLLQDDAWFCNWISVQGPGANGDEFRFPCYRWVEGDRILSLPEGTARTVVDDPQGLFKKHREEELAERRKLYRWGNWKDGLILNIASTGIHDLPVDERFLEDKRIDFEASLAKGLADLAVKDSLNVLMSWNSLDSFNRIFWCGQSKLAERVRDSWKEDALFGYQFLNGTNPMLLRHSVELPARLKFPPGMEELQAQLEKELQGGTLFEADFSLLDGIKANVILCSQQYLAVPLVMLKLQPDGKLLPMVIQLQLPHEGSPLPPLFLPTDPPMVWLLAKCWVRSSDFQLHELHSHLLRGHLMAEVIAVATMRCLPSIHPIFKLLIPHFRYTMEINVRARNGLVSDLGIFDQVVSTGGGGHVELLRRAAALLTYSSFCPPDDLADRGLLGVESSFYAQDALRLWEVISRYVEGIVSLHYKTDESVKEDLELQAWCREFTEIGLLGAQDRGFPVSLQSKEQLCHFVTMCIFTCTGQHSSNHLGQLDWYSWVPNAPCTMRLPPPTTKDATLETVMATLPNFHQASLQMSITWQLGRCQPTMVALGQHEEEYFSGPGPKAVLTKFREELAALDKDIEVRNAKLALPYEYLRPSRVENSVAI
Assay type: biochemical
Description: This procedure was used for measuring the enzymatic activity of porcine leukocyte 12/15-lipoxygenase using a calorimetric method based on the ferric oxidation of xylenol orange.
Porcine Leukocyte 12/15-lipoxygenase (Cayman Cat # 60300) was used in this assay. Test compound and/or vehicle was added to 1.3U 12/15-lipoxygenase in 50 mM Tris-HCl buffer, pH 7.4. The reaction was initiated by addition of 70 μM arachidonic acid in Tris-HCl buffer, pH 7.4, and terminated after a 10 minute incubation at room temperature by addition of FOX reagent (25 mM sulphuric acid, 100 μM xylenol orange, 100 μM iron (II) sulphate, methanol:water 9:1). The yellow color of acidified xylenol orange was converted to a blue color by the lipid hydroperoxide-mediated oxidation of Fe^2+ ions and the interaction of the resulting Fe^3+ ions with the dye. The complex was allowed to form during a 1 hour incubation at room temperature with shaking. Absorbance of the Fe^3+ complex was then measured at […] using a spectrophotometer.
Negative controls contained enzyme during the incubation step but substrate was not added until after the FOX reagent.
Compounds are screened at 5 concentrations in triplicate starting at 10 μM
With `CC1(C)CCc2cc(O)c3c(c2O1)C1CCC3CC1` [2,2-Dimethyl-3,4,7,8,9,10-hexahydro-7,10-ethano-2H-benzo[h]chromen-6-ol] the IC50 was ≤ 10 µM. `CC1(C)C=Cc2cc(O)c3c(c2O1)C1CCC3CC1` [2,2-Dimethyl-7,8,9,10-tetrahydro-7,10-ethano-2H-benzo[h]chromen-6-ol] was tested, and the IC50 was ≤ 10 µM. For `CC(C)CSCCCC1(C)CCc2cc(O)c3c(c2O1)C1CCC3C1` (stereo not drawn) [2-(3-isobutylsulfanyl-propyl)-2-methyl-3,4,7,8,9,10-hexahydro-7,10-methano-2H-benzo[h]chromen-6-ol], the IC50 was ≤ 10 µM. In the case of `CC1(CCCSc2nccs2)CCc2cc(O)c3c(c2O1)C1CCC3C1` (stereo not drawn) [2-Methyl-2-[3-(thiazol-2-ylsulfanyl)-propyl]-3,4,7,8,9,10-hexahydro-7,10-methano-2H-benzo[h]chromen-6-ol], the IC50 is reported as ≤ 10 µM.

Reference: patent US7875607B2, “7,8-bicycloakyl-chroman derivatives” (Ampere Life Sciences, Inc., priority 2004, dated 2011)
